Literature values as cited in US8957276B2 (priority 2009, dated 2015).

system: Rat; details: in vivo, po

Q: With `[Cl][Hg][Cl]` [HgCl2, mercury chloride (II)] as the compound, how does the “Acute toxicity (LD50)” value read?
A: 1 mg/kg

Q: Which “Acute toxicity (LD50)” value does the source give for `[Cl][Hg].[Cl][Hg]` [Hg2Cl2] here?
A: 210 mg/kg

Q: With `[CH3][Hg][CH3]` [(CH3)2Hg] as the compound, how does the “Acute toxicity (LD50)” value read?
A: 26 mg/kg

Q: With `[O]=[Hg]` [HgO, mercury oxide] as the compound, how does the “Acute toxicity (LD50)” value read?
A: 18 mg/kg

Q: For `[Cl][Hg]` [HgCl], which “Acute toxicity (LD50)” value is on record?
A: 210 mg/kg

system: Human; details: in vivo, po

Q: For `[Hg]` [Hg, metallic mercury], which “Acute toxicity (LD50)” value is on record?
A: 43 mg/kg
